Reference: ChEMBL document CHEMBL4393707, “Synthesis and evaluation of new quinazolin-4(3H)-one derivatives as potent antibacterial agents against multidrug resistant Staphylococcus aureus and Mycobacterium tuberculosis” (Eur J Med Chem, 2019)
Converted amounts (≈) assume the structure as drawn.

Tests used:
Format in all cases: functional
Staphylococcus aureus = test: Antibacterial activity against Staphylococcus aureus ATCC 29213 incubated for 16 to 18 hrs by broth microdilution assay
Acinetobacter baumannii = test: Antibacterial activity against Acinetobacter baumannii BAA1605 incubated for 16 to 18 hrs by broth microdilution assay
[1] = test system: Mycobacterium tuberculosis; test: Antitubercular activity against Mycobacterium tuberculosis H37Rv after 7 days by resazurin dye based assay; conditions: 168 h
Pseudomonas aeruginosa = test: Antibacterial activity against Pseudomonas aeruginosa ATCC 27853 incubated for 16 to 18 hrs by broth microdilution assay
Escherichia coli = test: Antibacterial activity against Escherichia coli ATCC 25922 incubated for 16 to 18 hrs by broth microdilution assay
Klebsiella pneumoniae = test: Antibacterial activity against Klebsiella pneumoniae ATCC BAA-1705 incubated for 16 to 18 hrs by broth microdilution assay

Row | Compound | MIC (Staphylococcus aureus) [µg/mL] | MIC (Acinetobacter baumannii) [µg/mL] | MIC [1] [µg/mL] | MIC (Pseudomonas aeruginosa) [µg/mL] | MIC (Escherichia coli) [µg/mL] | MIC (Klebsiella pneumoniae) [µg/mL]
1 | Cc1nc2cc(-n3cc(COc4ccc5nc(C)n(-c6ccccc6)c(=O)c5c4)nn3)ccc2c(=O)n1-c1ccccc1 | > 64 | > 64 | > 64 | > 64 | > 64 | > 64
2 | N#Cc1ccc(/C=C/c2nc3ccc(OCc4cn(-c5cccc(Cl)c5)nn4)cc3c(=O)n2Cc2ccccc2)cc1 | > 64 | > 64 | > 64 | > 64 | > 64 | > 64
3 | Cc1ccc(C)c(-n2c(/C=C/c3ccc(C#N)cc3)nc3ncccc3c2=O)c1 | > 64 | > 64 | > 64 | > 64 | > 64 | > 64
4 | N#Cc1ccc(/C=C/c2nc3ncccc3c(=O)n2Cc2ccc(F)cc2)cc1 | > 64 | > 64 | > 64 | > 64 | > 64 | > 64
5 | N#Cc1ccc(/C=C/c2nc3cc(-n4cc(-c5ccccc5)nn4)ccc3c(=O)n2-c2ccccc2)cc1 | > 64 | > 64 | > 64 | > 64 | > 64 | > 64
6 | COC(=O)Cn1c(/C=C/c2ccc(C#N)cc2)nc2ccccc2c1=O | > 64 | > 64 | > 64 | > 64 | > 64 | > 64
7 | C#Cc1cccc(-n2c(/C=C/c3ccc(C#N)cc3)nc3ncccc3c2=O)c1 | > 64 | > 64 | > 64 | > 64 | > 64 | > 64
8 | COc1cc(-n2c(/C=C/c3ccc(C#N)cc3)nc3ncccc3c2=O)cc(OC)c1OC | 64 (≈ 145 µM) | > 64 | 64 (≈ 145 µM) | > 64 | > 64 | > 64
9 | N#Cc1ccc(/C=C/c2nc3ncccc3c(=O)n2-c2cccc(C#N)c2)cc1 | > 64 | > 64 | > 64 | > 64 | > 64 | > 64
10 | C#CCNc1ccc2c(=O)n(-c3ccccc3)c(/C=C/c3ccc(C#N)cc3)nc2c1 | > 64 | > 64 | > 64 | > 64 | > 64 | > 64
11 | Cc1nc2cc(-n3cc(COc4ccccc4)nn3)ccc2c(=O)n1-c1ccccc1 | > 64 | > 64 | > 64 | > 64 | > 64 | > 64
12 | GENTAMICIN | 0.25 | – | – | – | – | –
13 | C=CCOc1cccc(-n2c(/C=C/c3ccc(C#N)cc3)nc3cccc(F)c3c2=O)c1 | 64 (≈ 151 µM) | > 64 | > 64 | > 64 | > 64 | > 64
14 | N#Cc1ccc(/C=C/c2nc3ccccc3c(=O)n2Cc2ccc(F)cc2)cc1 | > 64 | > 64 | > 64 | > 64 | > 64 | > 64
15 | N#Cc1ccc(/C=C/c2nc3ccccc3c(=O)n2Nc2ccc(C(F)(F)F)cc2)cc1 | > 64 | > 64 | > 64 | > 64 | > 64 | > 64
16 | Cc1nc2ccc(OCc3cn(Cc4ccc(Br)cc4)nn3)cc2c(=O)n1-c1ccccc1 | 64 (≈ 127 µM) | > 64 | > 64 | > 64 | > 64 | > 64
17 | COc1ccc(-c2cn(-c3ccc4c(=O)n(-c5ccccc5)c(C)nc4c3)nn2)cc1 | > 64 | > 64 | 64 (≈ 156 µM) | > 64 | > 64 | > 64
18 | N#Cc1ccc(/C=C/c2nc3ccccc3c(=O)n2-c2cccc3ccccc23)cc1 | > 64 | > 64 | > 64 | > 64 | > 64 | > 64
19 | Cc1cc(C)cc(OCc2cn(-c3ccc4c(=O)n(-c5cccc(Cl)c5)c(C)nc4c3)nn2)c1 | > 64 | > 64 | > 64 | > 64 | > 64 | > 64
20 | Cc1nc2ccc(-c3ccc(F)cc3)cc2c(=O)n1-c1cccc(Cl)c1 | > 64 | > 64 | > 64 | > 64 | > 64 | > 64
21 | Cc1cc(-n2cc(CNc3ccc4c(=O)n(-c5ccccc5)c(C)nc4c3)nn2)cc(C)c1C | > 64 | > 64 | > 64 | > 64 | > 64 | > 64
22 | N#Cc1ccc(/C=C/c2nc3cc(-c4ccccc4)ccc3c(=O)n2-c2cccc(Cl)c2)cc1 | > 64 | > 64 | > 64 | > 64 | > 64 | > 64

Row | Compound | MIC (Staphylococcus aureus) [µg/mL] | MIC (Acinetobacter baumannii) [µg/mL] | MIC [1] [µg/mL] | MIC (Pseudomonas aeruginosa) [µg/mL] | MIC (Escherichia coli) [µg/mL] | MIC (Klebsiella pneumoniae) [µg/mL]
23 | Cc1nc2ccc(OCc3cn(-c4ccc(Cl)cc4)nn3)cc2c(=O)n1Cc1ccccc1 | > 64 | > 64 | > 64 | > 64 | > 64 | > 64
24 | Cc1cccc(-n2c(/C=C/c3ccc(C#N)cc3)nc3ncccc3c2=O)c1C | > 64 | > 64 | > 64 | > 64 | > 64 | > 64
25 | CC(C)(O/N=C(\C(=O)N[C@@H]1C(=O)N2C(C(=O)[O-])=C(C[n+]3ccccc3)CS[C@H]12)c1csc(N)n1)C(=O)O [CEFTAZIDIME] | 16 (≈ 29.3 µM) | – | – | – | – | –
26 | C#CCOc1ccc2nc(/C=C/c3ccc(C#N)cc3)n(CC(=O)OC)c(=O)c2c1 | > 64 | > 64 | > 64 | > 64 | > 64 | > 64
27 | Cc1nc2cc(-n3cc(-c4ccc(Br)cc4)nn3)ccc2c(=O)n1-c1ccccc1 | 64 (≈ 140 µM) | > 64 | 64 (≈ 140 µM) | > 64 | > 64 | > 64
28 | Cc1cc(-n2cc(CNc3ccc4c(=O)n(-c5ccccc5)c(C)nc4c3)nn2)ccc1[N+](=O)[O-] | > 64 | > 64 | > 64 | > 64 | > 64 | > 64
29 | N#Cc1ccc(/C=C/c2nc3ncccc3c(=O)n2-c2cccc(O)c2)cc1 | > 64 | > 64 | > 64 | > 64 | > 64 | > 64
30 | N#Cc1ccc(/C=C/c2nc3ncccc3c(=O)n2-c2ccc3c(c2)OCCO3)cc1 | > 64 | > 64 | > 64 | > 64 | > 64 | > 64
31 | COc1cc(-n2cc(COc3ccc4nc(C)n(-c5ccccc5)c(=O)c4c3)nn2)cc(OC)c1OC | > 64 | > 64 | > 64 | > 64 | > 64 | > 64
32 | N#Cc1ccc(/C=C/c2nc3ccccc3c(=O)n2CCc2c[nH]c3ccccc23)cc1 | > 64 | > 64 | > 64 | > 64 | > 64 | > 64
33 | CCCCCCCCCC(=O)N[C@@H](Cc1c[nH]c2ccccc12)C(=O)N[C@H](CC(N)=O)C(=O)N[C@@H](CC(=O)O)C(=O)N[C@@H]1C(=O)NCC(=O)N[C@@H](CCCN)C(=O)N[C@@H](CC(=O)O)C(=O)N[C@H](C)C(=O)N[C@@H](CC(=O)O)C(=O)NCC(=O)N[C@H](CO)C(=O)N[C@@H]([C@H](C)CC(=O)O)C(=O)N[C@@H](CC(=O)c2ccccc2N)C(=O)O[C@@H]1C | 0.5 (≈ 0.309 µM) | – | – | – | – | –
34 | CC(C)(C)c1ccc(-n2c(/C=C/c3ccc(C#N)cc3)nc3ccccc3c2=O)cc1 | > 64 | > 64 | > 64 | > 64 | > 64 | > 64
35 | C#CCOc1ccc2nc(/C=C/c3ccc(C#N)cc3)n(Cc3ccccc3)c(=O)c2c1 | > 64 | > 64 | > 64 | > 64 | > 64 | > 64
36 | COC(=O)Cn1c(/C=C/c2ccc(C#N)cc2)nc2ccc(OCc3cn(-c4ccc(F)c(Cl)c4)nn3)cc2c1=O | > 64 | > 64 | > 64 | > 64 | > 64 | > 64
37 | COc1ccc(-c2ccc3nc(/C=C/c4ccccc4)n(-c4ccccc4)c(=O)c3c2)cc1 | > 64 | > 64 | 64 (≈ 149 µM) | > 64 | > 64 | > 64
38 | COc1ccc(-c2ccc3nc(C)n(-c4ccccc4)c(=O)c3c2)cc1 | 32 (≈ 93.5 µM) | > 64 | > 64 | > 64 | > 64 | > 64
39 | Cc1ccc(-c2cn(-c3ccc4c(=O)n(-c5ccccc5)c(C)nc4c3)nn2)cc1 | > 64 | > 64 | > 64 | > 64 | > 64 | > 64
40 | N#Cc1ccc(/C=C/c2nc3cccc(F)c3c(=O)n2-c2cccc(C#N)c2)cc1 | 32 (≈ 81.6 µM) | > 64 | > 64 | > 64 | > 64 | > 64
41 | COc1ccc(-c2cn(-c3ccc4c(=O)n(-c5ccccc5)c(/C=C/c5ccc(C#N)cc5)nc4c3)nn2)cc1 | > 64 | > 64 | > 64 | > 64 | > 64 | > 64
42 | CN(C)c1ccc(O)c2c1C[C@H]1C[C@H]3[C@H](N(C)C)C(O)=C(C(N)=O)C(=O)[C@@]3(O)C(O)=C1C2=O [MINOCYCLINE] | 0.125 (≈ 0.273 µM) | – | – | – | – | –
43 | NNC(=O)c1ccncc1 [ISONIAZID] | – | – | 0.03 (≈ 0.219 µM) | – | – | –
44 | CO[C@H]1/C=C/O[C@@]2(C)Oc3c(C)c(O)c4c(O)c(c(/C=N/N5CCN(C)CC5)c(O)c4c3C2=O)NC(=O)/C(C)=C\C=C\[C@H](C)[C@H](O)[C@@H](C)[C@@H](O)[C@@H](C)[C@H](OC(C)=O)[C@@H]1C [RIFAMPIN] | 0.015 (≈ 0.0182 µM) | – | 0.03 (≈ 0.0365 µM) | – | – | –
